Data taken from patent publication US20050031652A1, “Compositions and methods comprising memantine and polyanionic polymers” (priority 2003, published 2005).
Where a name gives a salt, the structure may show the parent alone.

Tests used:
[1] = test system: Rabbits; experiment: Five day toxicology study, topical dosing twice a day; type: in vivo, rabbit; details: CMC based versus borate buffered formulations
Protocol: This study was followed up by a five day toxicology study which included borate buffered formulations ranging from 0.1 to 0.75% (w/v) memantine, CMC based formulations ranging from 0.1 to 1.0% (w/v) memantine and the relevant placebos. All formulations were preserved with 20 ppm BAK.
The formulations were dosed with 35 μL drops topically to the cul-de-sac of rabbits twice a day for […]. The rabbits were evaluated by gross clinical observation of irritation, ranked as none, slight, mild, moderate or severe. The irritation score was a sum of lacrimation, chemosis, hyperemia and tolerability all scored from none to severe.

[2] = Autoradiography after topical ophthalmic instillation; type: in vivo, rabbit
Protocol: General disposition of topical ophthalmic 1-amino-3,5-dimethyladamantane hydrochloride (memantine) instillation was assessed by autoradiography. Briefly, albino and pigmented rabbits were dosed via topical ophthalmic instillation with a 0.74% (w/v) aqueous isotonic memantine solution having a pH of 7.4. After dosing, autoradiographic sections of the eye were acquired at 0.25, 0.5, 1, and 2 and 24 hours post dosing.

[3] = Retina levels after topical versus oral dosing over seven days (Example 9); details: albino, rabbit, in vivo, 1.76 mg/kg/day
Protocol: Once a day topical dosing of 0.37% memantine HCl (w/v) borate buffered solution (0.242 mg/kg/day), was compared to daily oral dosing of memantine HCL, 1.76 mg/kg/day, in albino rabbits over seven days. […] Peak levels obtained by topical dosing far exceeded levels thought to be possible by oral dosing. […] Thus, topical dosing of this formulation is […].

[4] = in vivo; details: rabbit, po, 2 mg/kg
Protocol: Tissue concentrations of memantine were determined after oral and topical dosing. Rabbits were dosed topically with 35 μl of a 0.1% (w/v) aqueous solution of radiolabeled memantine twice a day to both eyes for 7 days (equivalent to approximately 0.07 mg/kg/day). This composition is detailed in Table 1 as Composition 2. Another subset of rabbits was dosed orally with 2 mg/kg radiolabeled memantine for seven days. At the end of the dosing period ocular tissue concentrations were quantified.

[5] = Human oral clinical pharmacokinetic study; type: in vivo
Protocol: Assuming a 31% protein binding and a retina-choroid concentration equivalent to the free-unbound plasma memantine concentration, the peak retinal level of memantine would be 0.30 μM.

[6] = assumed for the calculation; cited from earlier work
[7] = cited from earlier work

CC12CC3CC(C)(C1)CC(N)(C3)C2 [memantine, 1-amino-3,5-dimethyladamantane hydrochloride]
improvement of tolerability, factor [1]: 5-8
half-life in the posterior globe (qualitative) ([2]; albino and pigmented rabbits, topical 0.74% (w/v) solution): relatively long
binding to ocular melanin ([2]; pigmented tissues, autoradiography intensity): binds to the ocular melanin
presence in posterior ocular tissues ([2]; topical 0.74% (w/v) aqueous isotonic solution pH 7.4, albino and pigmented rabbits): present in the posterior sclera, choroid and/or retina
concentration at 7 days [3]: 100 ng/mL
concentration at 7 days [4]: 107 ng/mL
peak retinal level (calculated) ([5]; oral 20 mg per day, assuming 31% protein binding and retina-choroid equal to free plasma concentration): 0.30 µM
mean plasma concentration ([5]; oral dose of 20 mg per day): 95 ng/mL
protein binding [6]: 31%
dose limiting side effects ([7]; oral delivery): dizziness, lightheadedness and slurred speech
other adverse events associated with CNS excitation ([7]; oral dosages of 5 to 30 mg/day): anxiety, dissociation, dry mouth, headache, nervousness, slurred speech, tiredness and weakness
